# Experiments:
# [1] = molecular target: T1, thromboxane synthetase enzyme (Rattus norvegicus, UniProt P49430); assay: Thromboxane Synthetase Enzyme Inhibition (TXB2 formation by washed SHR platelets, RIA); format: cell-based, Okamoto-Aoki spontaneously hypertensive rats (SHR); conditions: 10 min; Dose 10^-4 (unit inferred); SHR platelet suspension, 10 minutes at 37° C.
# T1 construct: The platelets were isolated by centrifuging the PRP for 10 minutes at 1060xg; endogenous in cells; host or cells: washed platelets from arterial blood of Okamoto-Aoki spontaneously hypertensive rats (Taconic Farms, Germantown, NY)
# T1 sequence (P49430 1-533): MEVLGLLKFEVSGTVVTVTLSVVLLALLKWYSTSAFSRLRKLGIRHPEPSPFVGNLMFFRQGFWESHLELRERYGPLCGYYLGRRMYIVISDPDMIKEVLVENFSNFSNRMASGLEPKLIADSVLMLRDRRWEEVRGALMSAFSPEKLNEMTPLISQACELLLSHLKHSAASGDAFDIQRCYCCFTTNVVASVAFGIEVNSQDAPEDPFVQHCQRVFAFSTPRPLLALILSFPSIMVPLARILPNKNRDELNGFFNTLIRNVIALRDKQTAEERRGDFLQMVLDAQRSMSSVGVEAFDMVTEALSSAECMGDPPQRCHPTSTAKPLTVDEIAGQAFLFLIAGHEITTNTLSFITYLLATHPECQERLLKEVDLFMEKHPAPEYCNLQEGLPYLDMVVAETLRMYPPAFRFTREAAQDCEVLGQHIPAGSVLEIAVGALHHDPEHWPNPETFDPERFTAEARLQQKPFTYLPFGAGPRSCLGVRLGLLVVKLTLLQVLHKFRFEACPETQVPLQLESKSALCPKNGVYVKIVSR
# Description: Under urethan anesthesia, […] of arterial blood was collected in one ml. of 3.2% sodium citrate in a polystyrene tube from Okamoto-Aoki spontaneously hypertensive rats (SHR) (Taconic Farms, Germantown, NY) between 19 and 24 weeks in age. The blood was diluted with 3 ml. cold saline and centrifuged at room temperature for 15 minutes at 460xg. The platelet rich plasma (PRP) was separated. The platelets were isolated by centrifuging the PRP for 10 minutes at 1060xg and were washed in 4 ml. of cold oxygenated Krebs phosphate buffer, pH 7.4. The chilled platelets recovered from centrifuging at 800xg for 10 minutes were resuspended in oxygenated Krebs phosphate buffer and diluted to contain 4.5-6.0×10^4 platelets/μl.
# The inhibition of thromboxane (TX) formation was studied by determining the concentration of thromboxane B2 (TXB2), the stable hydrolysis product of TXA2. Assay samples, prepared on ice, contained 200 μl platelet suspension, 50 μl saline and 50 μl saline and 50 μl vehicle or drug under study. The samples were incubated for 10 minutes at 37° C. in a metabolic shaker. The reaction was terminated by immersing the tubes in an ice bath and adding 50 μl of 0.5M citric acid. The samples were centrifuged for 10 minutes in a refrigerated centrifuge and the supernatants thus obtained were decanted and stored at -20° C. The TXB2 content for each sample was determined by a direct radioimmunoassay (RIA) utilizing a TXB2 specific RIA kit purchased from New England Nuclear, Boston, MA and expressed as pg TXB2 formed minute^-1 sample^-1, from which the percent inhibition of TXB2 formation was calculated.
# [2] = tested on: spontaneously hypertensive rats; assay: Hypotensive Activity in Spontaneously Hypertensive Rats; format: in vivo; conditions: gavage, 100 mg./kg. or less, two doses 24 hours apart; measured 28 hours after initial dose; initial average 170±1.5 mm
# Description: The novel compounds of the present invention are active hypotensive agents and were tested for hypotensive activity by the method of P. S. Chan and D. Poorvin, Clinical and Experimental Hypertension, 1 (6), 817-830 (1979). Male, 16 week old, spontaneously hypertensive rats of the Okamoto strain, from Taconic Farms, Germantown, N.Y., having an average mean arterial blood pressure of 170±1.5 mm of mercury are used in the test. One to 3 rats are used per test compound. A rat is dosed by gavage with a test compound, suspended in 2% pre-boiled starch at a concentration of 50 mg./ml., at a dose of 100 mg./kg. of body weight or less, with 0.9% sodium chloride loading at a dose of 25 ml./kg. of body weight. A second identical dose of the test compound, without sodium chloride loading is given 24 hours later. At 28 hours after the initial dose the mean arterial blood pressure is measured by the method of Chan and Poorvin vide supra. The procedure is repeated in a second and third rat when necessary.
# [3] = tested on: ischemic myocardium in canines; conditions: cited from earlier work
# [4] = tested on: coronary arteries of guinea pigs; conditions: cited from earlier work
# [5] = tested on: coronary arteries of rabbits; conditions: cited from earlier work
SMILES,inhibition at 100 µM [1],Average MABP [2],also measured
O=C(NCCCn1ccnc1)Nc1ccc(Br)cc1 [N--(4-bromophenyl)-N'--[3-(1H--imidazole-1-yl)propyl]-urea],95%,145 mm Hg,–
O=C(NCCCn1ccnc1-c1ccccc1)Nc1ccc(Cl)cc1 [N--(4-chlorophenyl)-N'--[3-(2-phenyl-1H--imidazol-1-yl)-propyl]urea],86%,–,–
O=C(NCCCn1ccnc1)Nc1ccccc1F [N--(2-fluorophenyl)-N'--[3-(1H--imidazole-1-yl)propyl]-urea],99%,135 mm Hg,–
"O=C(NCCCn1cncn1)Nc1ccccc1Br [N--(2-bromophenyl)-N'--[3-(1H--1,2,4-triazol-1-yl)propyl]-urea]",85%,130 mm Hg,–
"COc1ccc(NC(=O)NCCCn2cncn2)cc1 [N--(4-methoxyphenyl)-N'--[3-(1H--1,2,4-triazol-1-yl)-propyl]urea]",71%,–,–
O=C(NCCCn1ccnc1)Nc1ccccc1 [N--[3-(1H--imidazol-1-yl)propyl]-N'--phenylurea],97%,141 mm Hg,–
O=C(NCCCn1ccnc1)Nc1cccc(C(F)(F)F)c1 [N-[3-(1H-Imidazol-1-yl)propyl]-N'-[3-(trifluoromethyl)phenyl]urea],100%,–,–
"O=C(NCCCn1cncn1)Nc1ccccc1 [N--phenyl-N'--[3-(1H--1,2,4-triazol-1-yl)propyl]urea]",–,151 mm Hg,–
"O=C(NCCCn1cncn1)Nc1ccccc1F [N--(2-fluorophenyl)-N'--[3-(1H--1,2,4-triazol-1-yl)propyl]-urea]",70%,149 mm Hg,–
Cc1ccc(NC(=O)NCCCn2ccnc2)cc1 [N--[3-(1H--imidazole-1-yl)-propyl]-N'--(4-methylphenyl)-urea],98%,–,–
COc1ccc(NC(=O)NCCCn2ccnc2)cc1 [N--[3-(1H--imidazol-1-yl)propyl]-N'--(4-methoxyphenyl)urea],94%,–,–
O=C(NCCCCn1ccnc1)Nc1ccccc1Br [N--(2-bromophenyl)-N'--[4-(1H--imidazol-1-yl)-butyl]-urea],–,98 mm Hg,–
O=C(NCCCCCn1ccnc1)Nc1ccc(Cl)cc1,92%,153 mm Hg,–
O=C(NCCCn1ccnc1)Nc1ccc(Cl)cc1 [N-(4-Chlorophenyl)-N'-[3-(1H-imidazol-1-yl)propyl]urea],92%,122 mm Hg,–
"O=C(NCCCn1cncn1)Nc1cccc(C(F)(F)F)c1 [N-[3-(1H-1,2,4-triazol-1-yl)propyl]-N'-[3-(trifluoromethyl)phenyl]urea]",99%,143 mm Hg,–
"CCCCC[C@H](O)/C=C/[C@@H]1[C@H]2C/C(=C/CCCC(=O)O)O[C@H]2C[C@H]1O [PGI2, Prostacyclin]",–,–,effect on ischemic myocardium [3]: beneficial effects

SMILES,inhibition at 100 µM [1],Average MABP [2],also measured
Cc1cn(CCCNC(=O)Nc2ccc(Cl)cc2)cn1 [N--(4-chlorophenyl)-N'--[3-(4-methyl-1H--imidazol-1-yl)-propyl]urea],92%,138 mm Hg,–
O=C(NCCCn1ccnc1)Nc1cccc(Cl)c1 [N--(3-chlorophenyl)-N'--[3-(1H--imidazole-1-yl)propyl]-urea],100%,124 mm Hg,–
"O=C(NCCCn1cncn1)Nc1ccc(Br)cc1 [N--(4-bromophenyl)-N'--[3-(1H--1,2,4-triazol-1-yl)propyl]urea]",86%,–,–
"O=C(NCCCn1cncn1)Nc1cccc(Cl)c1 [N--(3-chlorophenyl)-N--[3-(1H--1,2,4-triazol-1-yl)propy]-urea]",99%,149 mm Hg,–
O=C(NCCCCn1ccnc1)Nc1ccc(Cl)cc1 [N--(4-chlorophenyl)-N'--[4-(1H--imidazol-1-yl)butyl]urea],95%,131 mm Hg,–
O=C(NCCCn1ccnc1)Nc1ccccc1Br [N--(2-bromophenyl)-N'--[3-(1H--imidazole-1-yl)propyl]-urea],95%,113 mm Hg,–
"O=C(NCCCn1cncn1)Nc1ccc(Cl)c(Cl)c1 [N--(3,4-dichlorophenyl)-N'--[3-(1H--1,2,4-triazol-1-yl)-propyl]urea]",–,155 mm Hg,–
"O=C(NCCCn1cncn1)Nc1ccccc1Cl [N--(2-chlorophenyl)-N'--[3-(1H--1,2,4-triazol-1-yl)propyl]-urea]",86%,142 mm Hg,–
Cc1cn(CCCCNC(=O)Nc2ccc(Cl)cc2)cn1 [N--(4-chlorophenyl)-N'--[4-(4-methyl-1H--imidazol-1-yl)-butyl]urea],100%,–,–
O=C(NCCCn1ccnc1)Nc1ccccc1Cl [N--(2-chlorophenyl)-N'--[3-(1H--imidazole-1-yl)propyl]-urea],94%,123 mm Hg,–
O=C(NCCCCn1ccnc1)Nc1ccccc1Cl [N-(2-Chlorophenyl)-N'-[4-(-1H-imidazol-1-yl)butyl]urea],–,97 mm Hg,–
"O=C(NCCCn1cncn1)Nc1ccc(Cl)cc1 [N-(4-Chlorophenyl)-N'-[3-(1H-1,2,4 triazol-1-yl)propyl]urea]",93%,145 mm Hg,–
O=C(NCCCn1ccnc1)Nc1ccc(F)cc1 [N--(4-fluorophenyl)-N'--[3-(1H--imidazol-l-yl)propyl]-urea],100%,134 mm Hg,–
"CCCCC[C@H](O)/C=C/[C@H]1O[C@H]2C[C@H](O2)[C@@H]1C/C=C\CCCC(=O)O [TXA2, thromboxane A2]",–,–,effect of injection into coronary arteries [4]: causes myocardial ischemia and subendocardial necrosis; effect of injection into coronary arteries [5]: causes myocardial ischemia and subendocardial necrosis
"O=C(NCCCn1cncn1)Nc1ccc(F)cc1 [N--(4-fluorophenyl)-N'--[3-(1H--1,2,4-triazol-1-yl)propyl]urea]",97%,–,–
"O=C(NCCCn1ccnc1)Nc1ccc(Cl)c(Cl)c1 [N--(3,4-dichlorophenyl)-N'--[3-(1H--imidazole-1-yl)propyl]-urea]",95%,146 mm Hg,–

# Reference: US4576957A, “N-(Substituted phenyl)-N'-[(1H-imidazol-1-yl) and (1H-1,2,4-triazol-1-yl)alkyl]ureas” (American Cyanamid Company, priority 1984, dated 1986)
